Assay results taken from the NIST ThermoML archive (doi:10.1021/je049610v).

Legend:
[1] = xn = mol fraction of the nth substance listed; settings: 101 kPa, Liquid
[2] = refractive index (Na D-line) (dimensionless); xn = mol fraction of the nth substance listed; settings: 101 kPa, Liquid

ClC(Cl)C(Cl)Cl [1,1,2,2-tetrachloroethane] + COc1ccccc1
Settings	mass density, 298.15 K [kg/m3]	mass density, 303.15 K [kg/m3]	mass density, 308.15 K [kg/m3]	refractive index, 298.15 K	refractive index, 303.15 K	refractive index, 308.15 K	speed of sound, 298.15 K [m/s]	viscosity, 298.15 K [mPa·s]	viscosity, 303.15 K [mPa·s]	viscosity, 308.15 K [mPa·s]
[1], x2 = 0	1587.8	1580.6	1573.3	–	–	–	1153	1.591	1.471	1.361
[1], x2 = 0.1003	1526.3	1519.4	1512.6	–	–	–	1172	1.555	1.439	1.323
[1], x2 = 0.2021	1464.3	1457.7	1451.2	–	–	–	1193	1.518	1.404	1.29
[1], x2 = 0.303	1403.1	1396.9	1390.6	–	–	–	1214	1.47	1.362	1.253
[1], x2 = 0.3939	1348.3	1342.2	1336.2	–	–	–	1235	1.419	1.315	1.21
[1], x2 = 0.4986	1285.5	1279.9	1274	–	–	–	1262	1.355	1.255	1.155
[1], x2 = 0.5975	1226.5	1221.1	1215.6	–	–	–	1289	1.292	1.196	1.1
[1], x2 = 0.6972	1167.2	1162.1	1156.9	–	–	–	1317	1.224	1.131	1.038
[1], x2 = 0.7983	1107.6	1102.7	1097.7	–	–	–	1347	1.149	1.064	0.979
[1], x2 = 0.9012	1047	1042.8	1037.4	–	–	–	1379	1.074	0.994	0.914
[2], x2 = 0	–	–	–	1.4922	1.4894	1.4865	–	–	–	–
[2], x2 = 0.1003	–	–	–	1.4943	1.4915	1.4887	–	–	–	–
[2], x2 = 0.2021	–	–	–	1.4966	1.4937	1.4909	–	–	–	–
[2], x2 = 0.303	–	–	–	1.4989	1.496	1.4931	–	–	–	–
[2], x2 = 0.3939	–	–	–	1.5009	1.498	1.4952	–	–	–	–
[2], x2 = 0.4986	–	–	–	1.5032	1.5005	1.4977	–	–	–	–
[2], x2 = 0.5975	–	–	–	1.5055	1.5028	1.5	–	–	–	–
[2], x2 = 0.6972	–	–	–	1.508	1.5052	1.5023	–	–	–	–
[2], x2 = 0.7983	–	–	–	1.5105	1.5076	1.505	–	–	–	–
[2], x2 = 0.9012	–	–	–	1.5129	1.51	1.5072	–	–	–	–

C1COCCO1 [1,4-dioxane] + COc1ccccc1
x2 = 0
Settings	mass density, 298.15 K [kg/m3]	mass density, 303.15 K [kg/m3]	mass density, 308.15 K [kg/m3]	refractive index, 298.15 K	refractive index, 303.15 K	refractive index, 308.15 K	speed of sound, 298.15 K [m/s]	viscosity, 298.15 K [mPa·s]	viscosity, 303.15 K [mPa·s]	viscosity, 308.15 K [mPa·s]
[1]	1028.3	1023.1	1017.8	–	–	–	1345	1.415	1.171	1.068
[2]	–	–	–	1.4181	1.4176	1.4141	–	–	–	–

OCCCl [1-chloro-2-hydroxyethane] + COc1ccccc1
Settings	mass density, 298.15 K [kg/m3]	mass density, 303.15 K [kg/m3]	mass density, 308.15 K [kg/m3]	refractive index, 298.15 K	refractive index, 303.15 K	refractive index, 308.15 K	speed of sound, 298.15 K [m/s]	viscosity, 298.15 K [mPa·s]	viscosity, 303.15 K [mPa·s]	viscosity, 308.15 K [mPa·s]
[1], x2 = 0	1200.9	1192.5	1187.1	–	–	–	1358	3.104	2.669	2.347
[1], x2 = 0.103	1165.8	1158.6	1153.9	–	–	–	1365	2.6	2.334	2.068
[1], x2 = 0.209	1134.5	1129	1123.7	–	–	–	1372	2.13	1.943	1.755
[1], x2 = 0.313	1107.6	1102.5	1097.5	–	–	–	1378	1.778	1.631	1.485
[1], x2 = 0.395	1088.7	1083.9	1078.8	–	–	–	1382	1.583	1.452	1.32
[1], x2 = 0.49	1068.8	1064.3	1058.9	–	–	–	1388	1.418	1.289	1.16
[1], x2 = 0.59	1049.8	1044.8	1040.1	–	–	–	1392	1.269	1.158	1.046
[1], x2 = 0.69	1032.5	1027.5	1023	–	–	–	1397	1.155	1.064	0.972
[1], x2 = 0.797	1015.9	1010	1006.6	–	–	–	1402	1.087	1.004	0.921
[1], x2 = 0.898	1001.9	996.1	992.5	–	–	–	1406	1.007	0.936	0.865
[2], x2 = 0	–	–	–	1.4411	1.438	1.4326	–	–	–	–
[2], x2 = 0.103	–	–	–	1.4495	1.4793	1.4468	–	–	–	–
[2], x2 = 0.209	–	–	–	1.461	1.4586	1.4564	–	–	–	–
[2], x2 = 0.313	–	–	–	1.4712	1.4684	1.4652	–	–	–	–
[2], x2 = 0.395	–	–	–	1.4767	1.4745	1.4723	–	–	–	–
[2], x2 = 0.49	–	–	–	1.4836	1.4807	1.4778	–	–	–	–
[2], x2 = 0.59	–	–	–	1.4899	1.4879	1.4859	–	–	–	–
[2], x2 = 0.69	–	–	–	1.4978	1.4951	1.4923	–	–	–	–
[2], x2 = 0.797	–	–	–	1.5034	1.5011	1.4999	–	–	–	–
[2], x2 = 0.898	–	–	–	1.5094	1.5067	1.5041	–	–	–	–

COc1ccccc1 [anisole] + C1COCCO1
Settings	mass density, 298.15 K [kg/m3]	mass density, 303.15 K [kg/m3]	mass density, 308.15 K [kg/m3]	refractive index, 298.15 K	refractive index, 303.15 K	refractive index, 308.15 K	speed of sound, 298.15 K [m/s]	viscosity, 298.15 K [mPa·s]	viscosity, 303.15 K [mPa·s]	viscosity, 308.15 K [mPa·s]
[1], x1 = 0.0982	1023.3	1017.9	1012.9	–	–	–	1355	1.342	1.185	1.028
[1], x1 = 0.199	1018.4	1013.2	1008.2	–	–	–	1364	1.267	1.128	0.99
[1], x1 = 0.296	1014	1008.6	1003.9	–	–	–	1371	1.19	1.074	0.957
[1], x1 = 0.398	1009.7	1004.6	999.8	–	–	–	1378	1.12	1.028	0.936
[1], x1 = 0.5046	1005.5	1000.6	995.7	–	–	–	1385	1.072	0.994	0.917
[1], x1 = 0.6044	1001.8	996.9	992.1	–	–	–	1390	1.048	0.976	0.904
[1], x1 = 0.7057	998.3	993.5	988.6	–	–	–	1396	1.042	0.969	0.897
[1], x1 = 0.8028	995.1	990.5	985.4	–	–	–	1401	1.032	0.957	0.883
[1], x1 = 0.9005	991.9	987.4	982.4	–	–	–	1405	1.011	0.941	0.87
[1], x1 = 1	988.9	984.1	979.4	–	–	–	1410	0.992	0.919	0.853
[2], x1 = 0.0982	–	–	–	1.432	1.4295	1.427	–	–	–	–
[2], x1 = 0.199	–	–	–	1.4434	1.4408	1.4383	–	–	–	–
[2], x1 = 0.296	–	–	–	1.4538	1.4514	1.4496	–	–	–	–
[2], x1 = 0.398	–	–	–	1.4647	1.4628	1.4603	–	–	–	–
[2], x1 = 0.5046	–	–	–	1.475	1.472	1.47	–	–	–	–
[2], x1 = 0.6044	–	–	–	1.484	1.4814	1.4789	–	–	–	–
[2], x1 = 0.7057	–	–	–	1.4925	1.4899	1.4872	–	–	–	–
[2], x1 = 0.8028	–	–	–	1.5009	1.4982	1.4956	–	–	–	–
[2], x1 = 0.9005	–	–	–	1.5084	1.5054	1.5025	–	–	–	–
[2], x1 = 1	–	–	–	1.5148	1.5124	1.5092	–	–	–	–

COc1ccccc1 [anisole] + CCOC(=O)C(=O)OCC
x1 = 1
Settings	mass density, 298.15 K [kg/m3]	mass density, 303.15 K [kg/m3]	mass density, 308.15 K [kg/m3]	refractive index, 298.15 K	refractive index, 303.15 K	refractive index, 308.15 K	speed of sound, 298.15 K [m/s]	viscosity, 298.15 K [mPa·s]	viscosity, 303.15 K [mPa·s]	viscosity, 308.15 K [mPa·s]
[1]	988.9	984.1	979.4	–	–	–	1410	0.992	0.918	0.853
[2]	–	–	–	1.5148	1.5124	1.5092	–	–	–	–
